We go through four compounds from PMC8316002, “Inhibition of Escherichia coli Lipoprotein Diacylglyceryl Transferase Is Insensitive to Resistance Caused by Deletion of Braun’s Lipoprotein” (Journal of Bacteriology, 2021).

Values after ≈ are worked out from the molar mass of the structure shown. Where two headings read alike, the source gives them in different places. Where a SMILES comes first, the peptide text is derived from it. Bridges are numbered along the chain shown (N, C = ends). [ ]: non-standard residue; d: D form. Bip = N[C@@H](Cc1ccc(-c2ccccc2)cc1)C(=O)O; NMeF = CN[C@@H](Cc1ccccc1)C(=O)O

What all share (assay): microbe, parasite or virus in culture
In one assay the test system is PA14 imp4213. Type of assay: cell-based, P. aeruginosa. As to conditions: average of two independent experiments in duplicates. As for the experimental part: Bacterial strains and plasmids used in this study are listed in Table S1 in the supplemental material. E. coli strain CFT073 (ATCC 700928) ([62]) and MG1655 (ATCC 700926) were purchased from ATCC. Gene disruption in CFT073 was performed as previously described ([17], [63]). CFT073 Δlgt and MG1655 ΔlspA were generated using λ Red recombination ([17], [63]). Plasmids pKD46 for the λ Red recombinase ([17], [63]), pKD4 or pSim18 for the integration construction ([17], [63]), and pCP20 ([64]) for the FLP recombinase were used in this study. The 3′ primers (Table S2) used to generate the integration construct from pKD4 contain a juxtaposed ribosome binding site downstream of the kanamycin (Kan) cassette to allow for the creation of nonpolar gene deletions within operons ([63]), which is critical when generating the lgt inducible deletion strain given that the ribosomal binding site of the thyA gene downstream of lgt is within the lgt coding region. The inducible deletion strains (MG1655 Δlgt and MG1655 ΔlolCDE) in either the WT and/or Δlpp backgrounds were generated using similar methods as previously described ([17], [65]). To delete lpp in the lgt, lspA, and lolCDE inducible deletion strains, the Kan cassette was removed by transforming the FLP recombinase-expressing pCP20 plasmid followed by deletion of the lpp gene using λ Red recombinase as discussed above. Similar protocols were used to introduce the imp4213 mutant allele. The PA14 imp4213 strain was generated based on published protocols ([66][–][68]). Briefly, the lptD imp4213 mutant allele was generated by PCR amplifying PA14 genomic DNA using primer pairs PA14imp4213_up-F/PA14imp4213_up-R (upstream region) and PA14imp4213_dn-F/PA14imp4213_dn-R (downstream region) to create lptD missing amino acids 425 to 447. PCR products were combined with the PCR-amplified vector pEX18gm with primers pLMG18_GA-F/pLMG18_GA-R and assembled using Gibson assembly (NEB). The resultant suicide vector pEX18gm was confirmed by sequence analysis (ELIM Biopharm). […]
Unless stated otherwise, E. coli cells were grown in Luria-Bertani (LB) medium (0.5% yeast extract, 1% tryptone, 0.5% NaCl) at 37°C. […] Growth of MG1655 inducible deletion strains was measured by culturing in the presence of 2-fold dilutions of arabinose (starting arabinose concentrations for CFT073 and MG1655 inducible deletion strains were 4% and 0.8%, respectively). While 2% arabinose was sufficient for WT growth of MG1655 Δlgt, 4% arabinose was used for CFT073 Δlgt based on comparing its growth to that of WT CFT073 as measured by CFU. OD600 growth measurements were performed using an EnVision 2101 multilabel reader plate reader (PerkinElmer) linked with Echo liquid handler (Labcyte). […]

In the next assay the test system is CFT073 imp4213 Δlpp. Type of assay: cell-based, E. coli. As for the experimental part:
(§1) Unless stated otherwise, E. coli cells were grown in Luria-Bertani (LB) medium (0.5% yeast extract, 1% tryptone, 0.5% NaCl) at 37°C. Where indicated, kanamycin (Kan) was added to culture media at a 50-μg/ml final concentration. MIC assays were performed based on Clinical and Laboratory Standards Institute (CLSI) guidelines. For in vitro growth curves, overnight cultures of WT CFT073, CFT073 Δlgt, and CFT073 Δlgt complemented with lgt from E. coli (lgt^Ec) or P. aeruginosa (lgt^Pa) were grown to mid-exponential phase (optical density at 600 nm [OD600] of 0.6) and then diluted to an OD600 of 0.1 to initiate growth curves. At various times, culture aliquots were diluted and plated in dilutions on LB+Kan agar, and CFU were enumerated in duplicates. Growth of MG1655 inducible deletion strains was measured by culturing in the presence of 2-fold dilutions of arabinose (starting arabinose concentrations for CFT073 and MG1655 inducible deletion strains were 4% and 0.8%, respectively). While […] was sufficient for WT growth of MG1655 Δlgt, 4% arabinose was used for CFT073 Δlgt based on comparing its growth to that of WT CFT073 as measured by CFU. OD600 growth measurements were performed using an EnVision 2101 multilabel reader plate reader (PerkinElmer) linked with Echo liquid handler (Labcyte). For time-kill experiments, bacteria were harvested in mid-exponential phase and treated with 12.5 μM G2824, 3.2 μM globomycin, and 1.6 μM vancomycin. CFU were enumerated at various times posttreatment. Bacterial culture medium containing 2% arabinose was used to induce lpp or lppΔK expression from pBad24 plasmids. Bacterial viability at different time points during the treatment was measured by enumerating CFU. Serum killing assays were carried out as previously described ([17]).

A further assay relates to CFT073 Δlpp + EDTA. Type of assay: cell-based, E. coli. As for the experimental part:
as §1

Another assay concerns CFT073 imp4213. Type of assay: cell-based, E. coli. As to conditions: average of at least four independent experiments in duplicates. How it is done:
as §1

The subject of another assay is MG1655 Δlpp. Type of assay: cell-based, E. coli. How it is done: as §1
Another assay has as its system CFT073 + EDTA. The class given is cell-based, E. coli. Conditions: average of at least four independent experiments in duplicates. How it is done:
as §1

The next assay concerns MG1655 + EDTA. The class given is cell-based, E. coli. As to conditions: average of at least four independent experiments in duplicates. How it is done:
as §1

A further assay deals with MG1655. Type of assay: cell-based, E. coli. As to conditions: average of at least four independent experiments in duplicates. How it is done: as §1
The mark [1] stands for this setting: CFT073 imp4213 Δlpp, average of at least four independent experiments in duplicates.
The mark [2] stands for this setting: CFT073 Δlpp + EDTA, average of at least four independent experiments in duplicates.
Where [3] appears, read: MG1655 Δlpp, average of at least four independent experiments in duplicates.

Turning to `CN1C(=O)[C@H](Cc2ccc(-c3ccccc3)cc2)NC(=O)CNC(=O)[C@H](CC(=O)O)NC(=O)[C@@H](Cc2ccccc2)NC(=O)CSC[C@@H](C(=O)NCC(=O)N[C@@H](CCCCN)C(=O)N[C@@H](CCCCN)C(N)=O)NC(=O)[C@H](CCCNC(=N)N)NC(=O)[C@H](CO)NC(=O)[C@H](Cc2ccc(-c3ccccc3)cc2)NC(=O)[C@@H]1Cc1ccccc1` [G2824] ({CH2CO}-[dF]DG[Bip][NMeF][Bip]SRCGKK-NH2; thioether N-9), the MIC in the assay on PA14 imp4213 was found to be 6.3 µM; in the assay on CFT073 imp4213 Δlpp (setting [1]) it was 8.9 µM (≈ 14.6 µg/mL); in the assay with CFT073 Δlpp + EDTA (setting [2]) it was 2.3 µM; in the assay with CFT073 imp4213, 8.4 µM (≈ 13.8 µg/mL); with MG1655 Δlpp (setting [3]), 62.5 µM (≈ 103 µg/mL); in the assay with CFT073 + EDTA it was 3.1 µM (≈ 5.1 µg/mL). Further, the MIC with MG1655 + EDTA was 3.1 µM (≈ 5.1 µg/mL); in the assay with MG1655, approximately 100 µM (≈ 164 µg/mL); in the assay on MG1655 (read-out: MIC) it was 93.8 µM (≈ 154 µg/mL).

As to `CN1C(=O)[C@H](Cc2ccc(-c3ccccc3)cc2)NC(=O)CNC(=O)[C@H](CCCNC(=N)N)NC(=O)[C@@H](Cc2ccccc2)NC(=O)CSC[C@@H](C(=O)NCC(N)=O)NC(=O)[C@H](CCCNC(=N)N)NC(=O)[C@H](CO)NC(=O)[C@H](Cc2ccc(-c3ccccc3)cc2)NC(=O)[C@@H]1Cc1ccccc1` [G9066] ({CH2CO}-[dF]RG[Bip][NMeF][Bip]SRCG-NH2; thioether N-9), the MIC in the assay on PA14 imp4213 worked out at 6.3 µM; against CFT073 imp4213 Δlpp (setting [1]) it was 6.8 µM (≈ 9.72 µg/mL); in the assay with CFT073 Δlpp + EDTA (setting [2]), 1.6 µM; with CFT073 imp4213, 5.7 µM (≈ 8.14 µg/mL); against MG1655 Δlpp (setting [3]), 31.3 µM (≈ 44.7 µg/mL); with CFT073 + EDTA it was 3.1 µM (≈ 4.43 µg/mL). In addition, the MIC was 3.1 µM (≈ 4.43 µg/mL) in the assay with MG1655 + EDTA, approximately 100 µM (≈ 143 µg/mL) in the assay with MG1655 and more than 100 µM with MG1655 (read-out: MIC).

As for `CCCCCC[C@H]1OC(=O)CNC(=O)[C@H]([C@H](C)O)NC(=O)[C@H](CO)NC(=O)[C@H]([C@H](C)CC)NC(=O)[C@H](CC(C)C)N(C)C(=O)[C@@H]1C` [Globomycin], the MIC in the assay on PA14 imp4213 amounted to 50 µM; against CFT073 imp4213 Δlpp (setting [1]), 11.5 µM (≈ 7.54 µg/mL); in the assay on CFT073 Δlpp + EDTA (setting [2]), 4.7 µM; against CFT073 imp4213 it was 0.5 µM (≈ 0.328 µg/mL); against MG1655 Δlpp (setting [3]), 50 µM (≈ 32.8 µg/mL); in the assay with CFT073 + EDTA, 1.1 µM (≈ 0.721 µg/mL). Besides, the MIC in the assay with MG1655 + EDTA was 0.8 µM (≈ 0.525 µg/mL); in the assay on MG1655 (read-out: MIC), 25 µM (≈ 16.4 µg/mL). The “effect of lpp deletion on growth inhibition, MG1655, in words” value with MG1655 Δlpp (MG1655 Δlpp versus WT) was “resistant”.

Regarding `CN[C@H](CC(C)C)C(=O)N[C@H]1C(=O)N[C@@H](CC(N)=O)C(=O)N[C@H]2C(=O)N[C@H]3C(=O)N[C@H](C(=O)N[C@H](C(=O)O)c4cc(O)cc(O)c4-c4cc3ccc4O)[C@H](O)c3ccc(c(Cl)c3)Oc3cc2cc(c3O[C@@H]2O[C@H](CO)[C@@H](O)[C@H](O)[C@H]2O[C@H]2C[C@](C)(N)[C@H](O)[C@H](C)O2)Oc2ccc(cc2Cl)[C@H]1O` [Vancomycin], the MIC was 12.5 µM in the assay on PA14 imp4213 (Pseudomonas aeruginosa); 0.7 µM (≈ 1.01 µg/mL) in the assay on CFT073 imp4213 Δlpp (Escherichia coli); 0.8 µM (≈ 1.16 µg/mL) in the assay on CFT073 Δlpp + EDTA (Escherichia coli); 0.6 µM (≈ 0.87 µg/mL) in the assay with CFT073 imp4213 (Escherichia coli); more than 100 µM in the assay with MG1655 Δlpp (Escherichia coli, MG1655); 0.8 µM (≈ 1.16 µg/mL) with CFT073 + EDTA (Escherichia coli). In addition, the MIC in the assay with MG1655 + EDTA (Escherichia coli) was 3.1 µM (≈ 4.49 µg/mL); in the assay on MG1655 (Escherichia coli, read-out: MIC) it was more than 100 µM.
